Data published in patent publication US7608640B2, “Glycine betaine and its use” (priority 2001, dated 2009).
Where “and” joins values, the source holds several entries; their conditions need not be identical. Equal values may be shown once.

What was measured:
blood cells = test: Blood cell counts; type: in vivo, rat; details: rat; glycine betaine 5 mg/kg, acetylsalicylic acid 100 mg/kg, heparin 2 mg/kg
bleeding time in rats = test: Induced haemorrhagic (bleeding) time, tail cut; type: in vivo, rat; details: for B.T.C. (bleeding time caused): 5 mg/ml/kg; for Provoked haemorrhage: after 24 hours; for Induced haemorrhage: oral 50 mg/kg; for Bleeding time: rat, glycine betaine 5 mg/kg, acetylsalicylic acid 100 mg/kg, heparin 2 mg/kg
Experimental: Induced Haemorrahgic Time IHT
(E. Dejana. Bleeding time in rats. Thrombosis. Rech. 1982) Blood samples are made before the test. The tail of anaesthetised rat, is dipped for 5 minutes in a water bath at 37° C. so as to provoke a dilatation of the peripheral vessels which are removed and cut at the end, the chronometer being started. The IHT is defined as being the time period comprised between the cutting of end tail and the end of the haemorrhage or bleeding. The end of haemorrhage is defined as the time where the last drop of blood is removed from the tail and no other drop is seen for 180 seconds. […]

[1] = system: heparin-induced bleeding in rat; test: Tail cut bleeding test in heparinized rat; type: in vivo; details: for IHT (hemorrhage time), Mean / IHT (hemorrhage time), individual rats: Example 35, betaine 10 mg/kg and/or heparin 5 mg/kg s.c. 1 hour prior to testing
Experimental: This example determined the effect of betaine on hemorrhage time in a heparinized rat. Forty male Wistar rats were purchased from Charles River, France and were acclimated for one week prior to testing. Each animal was weighed prior to testing (weights ranged from 225 to 275 g, mean weight=245 g) and the group of 40 rats was further divided into 4 groups of 10 rats each. One group acted as a control group and each rat in this group received a subcutaneous injection of saline 1 hour prior to testing. The second group received a 10 mg/kg subcutaneous injection of betaine 1 hour prior to testing. The third group received a 5 mg/kg subcutaneous injection of heparin 1 hour prior to testing and the last group received a subcutaneous injection consisting of 5 mg/kg heparin plus 10 mg/kg betaine 1 hour prior to testing. The rats were anesthetized by intramuscular injection of Nesdonal (200 mg/kg). The products were then injected subcutaneously in the abdomen one hour before the tail cut induced bleeding test. For the group receiving the combined heparin/betaine (group 4) injections, the heparin and betaine were injected using different syringes at different sites of administration (left and right sides of the abdomen) in order to avoid any direct reactions between the two substances.
The tail of the anaesthetized rat was dipped for 5 minutes in a water bath at 37° C. in order to induce a dilation of the peripheral vessels. The tail was then removed from the water bath and sectioned at 10-15 mm from the extremity. The chronometer was then started. The IHT is defined as the time, in seconds, between the tail section and the end of the hemorrhage or bleeding. The end of hemorrhage is defined as the moment when the last drop of blood is collected from the tail and when no other drop is observed during 180 seconds. The amount of blood was estimated by visual inspection. […] Betaine has no significant effect on bleeding time and combined use of betaine with heparin almost restored the bleeding time to normal, thereby indicating an antidote-like activity of betaine against heparin.
This example investigated the effect of delayed betaine administration on active heparin-induced bleeding (antidote type administration) in a rat. Twelve male Wistar rats were purchased from Charles River, France and were acclimated for one week prior to testing. Each rat was weighed prior to testing (weights ranged from 245-280 g with a mean of 260 g) and the group of twelve was divided into 3 subgroups. Three rats were in the control group which received two saline injections, one at T0, one at T0+45 minutes. Three rats were in the […] group which received one injection of heparin (5 mg/kg) at T0. Six rats were in the antidote group which received a heparin injection (5 mg/kg) at T0, and a betaine injection (10 mg/kg) at T0+45 minutes. […] However, at the end of the bleeding experiments, blood was sampled by intracardiac puncture on Na-citrate (3.8%, 1:10) and plasmas of the collected blood samples were kept at −20° C. for future biological assays. Chemical products were also identical.
This example investigated the effect of delayed betaine administration in an antidote type administration inhibited the bleeding time and volume of blood loss induced by heparin treatment in a rat. Twenty male Wistar rats were purchased from Charles River, France and were acclimated for one week prior to the tests. Each rat was weighed prior to testing (weights ranged from 240-340 g with a mean weight of 275 g) and divided into 2 groups of 10 animals each. One group received an injection of heparin (5 mg/kg) at T0. The second group received a heparin injection (5 mg/kg) at T0, and a betaine injection (10 mg/kg) at T0+30 minutes. Both groups were subjected to a bleeding test at T0+60 minutes. The testing was performed using the previously described methodology with slight modifications. The tails were sectioned at 5-8 mm from the extremity. […]

coagulation factors = test: Biological balance (Quick time, ACT, fibrinogen, α2AP, AT III); type: in vivo, rat
platelet aggregation = test: Whole blood platelet aggregation ex vivo (aggregometer); type: in vivo, rat; details: for Amplitude (platelet aggregation induced ex vivo) / Velocity (platelet aggregation induced ex vivo): 5 mg/kg; for Amplitude (platelet aggregation) / Velocity (platelet aggregation): rat, after laser firings, glycine betaine 5 mg/kg, acetylsalicylic acid 100 mg/kg, heparin 2 mg/kg
Experimental: The aggregation is made in accordance to the methods of Cardinal & Flower. Pharmacol. Method. 1980, and to American Journal of Clinical Pathology, 1989; 92: 676-679, Sureney. J D. Whole Blood aggregometry. After a keeping period of 8 days, the rats are subjected to a fasting for 12 hours. […] The rats are then anaesthetised with sodium Thiopental administered at a dose of 200 mg/Kg and the blood samples are taken by intracardiac puncture on a trisodium citrate solution (1 volume of solution at 3.8% citrate for 9 volumes of blood).

[2] = 5 mg/kg/day, repeated administration on 5 days of treatment
[3] = rat, glycine betaine 5 mg/kg, acetylsalicylic acid 100 mg/kg, heparin 2 mg/kg
[4] = Group I: injected 1 hour before
[5] = Group II: injected 2 hours before
[6] = Group III: injected 3 hours before
[7] = Group IV: injected 4 hours before
[8] = Example 36, heparin 5 mg/kg at T0, betaine 10 mg/kg at T0+45 minutes, bleeding test at T0+75 minutes
[9] = Example 37, heparin 5 mg/kg at T0, betaine 10 mg/kg at T0+30 minutes, test at T0+60 minutes

C[N+](C)(C)CC(=O)O [Glycine betaine]
Number of platelets (blood cells): 804.67 ± 20.03 10^9
Number of red corpuscles (blood cells): 6.19 ± 0.25 10^12
Number of white corpuscles (blood cells): 4.43 ± 0.32 10^9
B.T.C. (bleeding time caused) (bleeding time in rats; Group I: injected 1 hour before the experiment): 105 ± 26.2 s
B.T.C. (bleeding time caused) (bleeding time in rats; Group II: injected 2 hours before the experiment): 145 ± 15.52 s
B.T.C. (bleeding time caused) (bleeding time in rats; Group III: injected 3 hours before the experiment): 115.5 ± 14.2 s
B.T.C. (bleeding time caused) (bleeding time in rats; Group IV: injected 4 hours before the experiment): 120 ± 10.13 s
Provoked Haemorrhage time (bleeding time in rats; 10 mg/kg subcutaneous): 105 s
Provoked haemorrhage (bleeding time in rats; 10 mg/kg subcutaneous): 114 ± 12.76 s
Provoked haemorrhage (bleeding time in rats; 20 mg/kg subcutaneous): 110 ± 13.22 s
Provoked Haemorrhage time (bleeding time in rats; 30 mg/kg subcutaneous): 112 s
Provoked Haemorrhage time (bleeding time in rats; 50 mg/kg subcutaneous): 115 s
Induced haemorrhage (bleeding time in rats; 1 hour): 120 ± 5 s
Induced haemorrhage (bleeding time in rats; 6 hours): 111 ± 3.6 s
Induced haemorrhage (bleeding time in rats; 24 hours): 113.33 ± 18.92 s
Induced haemorrhage (bleeding time in rats; 48 hours): 109 ± 8.54 s
Bleeding time (bleeding time in rats): 95 ± 5 s
IHT (hemorrhage time), Mean [1]: 169.9 s
IHT (hemorrhage time), individual rats [1]: 166 s and 180 s and 162 s and 173 s and 194 s and 203 s and 159 s and 142 s and 123 s and 197 s
Volume of blood loss by visual inspection ([1]; Example 36, antidote group versus heparin group): significantly reduced
ACT (coagulation factors; [2]): 39.3 ± 2.3 s
Fibrinogen (coagulation factors; [2]): 2.2 ± 0.1 g/L
Quick time (coagulation factors; [2]): 19.8 ± 1.2 s
ACT (Activated cephaline time) (coagulation factors; [3]): 39.9 ± 1.05 s
AT III (Antithrombin III) (coagulation factors; [3]): 89.5 ± 1.37%
Fibrinogen (coagulation factors; [3]): 1.7 ± 0.1 g/L
QT (Quick time) (coagulation factors; [3]): 16.9 ± 1.05 s
α2AP (Alpha,2-antiplasmin) (coagulation factors; [3]): 29.7 ± 0.68%
Amplitude (platelet aggregation induced ex vivo) (platelet aggregation; [4]): 11.33 ± 3.08 Ohms
Velocity (platelet aggregation induced ex vivo) (platelet aggregation; [4]): 8.2 ± 0.2 ohm/minute
Amplitude (platelet aggregation induced ex vivo) (platelet aggregation; [5]): 13.2 ± 3.5 Ohms
Velocity (platelet aggregation induced ex vivo) (platelet aggregation; [5]): 9.3 ± 1.8 ohm/minute
Amplitude (platelet aggregation induced ex vivo) (platelet aggregation; [6]): 12.7 ± 4.1 Ohms
Velocity (platelet aggregation induced ex vivo) (platelet aggregation; [6]): 8.7 ± 1.3 ohm/minute
Amplitude (platelet aggregation induced ex vivo) (platelet aggregation; [7]): 13 ± 2.8 Ohms
Velocity (platelet aggregation induced ex vivo) (platelet aggregation; [7]): 8.7 ± 1.15 ohm/minute
Amplitude (platelet aggregation) (platelet aggregation): 0.66 ± 1.15 ohms
Velocity (platelet aggregation) (platelet aggregation): 1.66 ± 1.15 ohms/min

Heparin
Number of platelets (blood cells): 777.33 ± 6.43 10^9
Number of red corpuscles (blood cells): 6.20 ± 0.20 10^12
Number of white corpuscles (blood cells): 5.80 ± 0.10 10^9
Bleeding time (bleeding time in rats): 313.33 ± 20 s
IHT (hemorrhage time), Mean [1]: 690.9 s
IHT (hemorrhage time), individual rats [1]: 679 s and 767 s and 680 s and 734 s and 702 s and 663 s and 735 s and 567 s
Bleeding Time, individual rats [1, 8]: 658 s and 597 s and 533 s
Bleeding time, Mean [1, 8]: 596 s
Bleeding Time, individual rats [1, 9]: 400 s and 345 s and 405 s and 370 s and 290 s and 265 s and 350 s and 300 s and 315 s and 275 s
Bleeding time, Mean [1, 9]: 331.5 s
Volume (blood loss), Mean [1, 9]: 1294 µL
Volume (blood loss), individual rats [1, 9]: 1650 μl and 1300 μl (2×) and 1800 μl and 1380 μl and 1200 μl and 940 μl and 1140 μl and 1130 μl and 1100 μl
ACT (Activated cephaline time) (coagulation factors; [3]): 39.46 ± 1.36 s
AT III (Antithrombin III) (coagulation factors; [3]): 77.66 ± 1.52%
Fibrinogen (coagulation factors; [3]): 2.13 ± 0.25 g/L
QT (Quick time) (coagulation factors; [3]): 29.50 ± 0.52 s
α2AP (Alpha,2-antiplasmin) (coagulation factors; [3]): 29.4 ± 1.01%
Amplitude (platelet aggregation) (platelet aggregation): 4.33 ± 0.57 ohms
Velocity (platelet aggregation) (platelet aggregation): 2.66 ± 0.50 ohms/min
